Results on 6 substances are retold here after article PMC2861366 (Biochemistry, 2010).

For assay [1], the system named is χ subunit of DNA polymerase III holoenzyme. Nature of the assay: ITC binding to χ subunit. Further details: species or system E. coli. The note with it: 25°C; for K, observed association equilibrium constant: buffer C (10 mM cacodylate, pH 7.0, 25% glycerol), 20 mM NaCl.
The test system of the next assay is PriA helicase. Nature of the assay: ITC binding to PriA helicase. On the set-up: species or system E. coli. The note with it: 25°C; for binding detected by ITC (in words): 0.2 M NaCl, same protein and peptide concentrations as with WP9. Background: Isothermal titration calorimetry measures the heat released or taken up as one component is titrated into another.
Assay [2] relates to χ subunit of DNA polymerase III holoenzyme. The note with it: SSB prebound to ssDNA, low salt (5mM NaCl); cited from earlier work.
[3] abbreviates: buffer C, pH 7.0, 200 mM NaCl, WP9: averaged from two titrations.
Setting [4] is: buffer T (10 mM Tris, pH 7.5, 10% glycerol), 20 mM NaCl.
[5] abbreviates: buffer C (10 mM cacodylate, pH 7.0, 25% glycerol), 20 mM NaCl.

“Also recorded” adds a separate entry of the source.

Take MDFDDDIPF [P9]: the “K, observed association equilibrium constant” value in assay [1] is “(1.6±0.4)×10^6 M^−1”; in the assay with PriA helicase (setting [3]) it was “(1.8±0.6)×10^5 M^−1”; in the assay on PriA helicase (setting [4]), “(2.0±0.3)×10^6 M^−1”.

For the substance PSNEPPMDFDDDIPF [P15], the “K, observed association equilibrium constant” value was “(1.5±0.2)×10^6 M^−1” in assay [1], “(2.7±0.2)×10^6 M^−1” in the assay on PriA helicase (setting [5]), “(3.6±0.2)×10^5 M^−1” with PriA helicase (setting [3]) and “(1.6±0.4)×10^6 M^−1” in the assay with PriA helicase (setting [4]).

“SSB: E. coli single stranded DNA binding protein, homotetramer”: in assay [1] (0.02 M NaCl), the “binding detected by ITC (in words)” value was “too weak to determine its binding parameters; also recorded: Weak (see text)”. Also, the “affinity of χ for SSB in the presence of ssDNA” value in assay [2] is recorded as “(7.4±1.0)×10^6 M^−1”.

Consider WDFMDDPFID [WP9r], for which the “binding detected by ITC (in words)” value is “No binding can be detected” in assay [1] (0.2 M NaCl, buffer C) and “No binding can be detected” in the assay on PriA helicase (buffer C).

For WMDFDDDISF [WP9-113], the “binding detected by ITC (in words)” value in assay [1] (0.2 M NaCl, buffer C) is listed as “No binding can be detected”; in the assay with PriA helicase (buffer C) it was “No binding can be detected”.

Take “WP9: modified P9 peptide containing a Trp residue on the N terminal side (WMDFDDDIPF)”: the “K, observed association equilibrium constant” value in assay [1] is reported as “(1.2±0.1)×10^6 M^−1”; with PriA helicase (setting [5]), “(1.6±0.2)×10^6 M^−1”; in the assay on PriA helicase (setting [3]), “(2.3±0.3)×10^5 M^−1”.
